From ChEMBL document CHEMBL1144947, “L-Serine and glycine based ceramide analogues as transdermal permeation enhancers: polar head size and hydrogen bonding” (2003)

Experiments:
[1] = organism: Homo sapiens; test: Enhancement ratio in theophylline permeation through human skin from isopropyl myristate (IPM) suspension (in vitro); format: functional
[2] = organism: Homo sapiens; test: Enhancement ratio in theophylline permeation through human skin from water (in vitro); format: functional

| SMILES | ER [1] | ER [2] |
| --- | --- | --- |
| CCCCCCCCCCCCOC(=O)C(CO)NC(=O)C(O)C(O)C(=O)OCCCCCCCCCCC (centres undefined) | 1.45 | 1.39 |
| CCCCCCCCCCCCOC(=O)CNC(=O)CNC(=O)CCCCCCCCCCC | 1.09 | 2.28 |
| CCCCCCCCCCCCOC(=O)C(CO)NC(=O)C(CO)NC(=O)CCCCCCCCCCC (centres undefined) | 1.07 | 1.26 |
| CCCCCCCCCCCCOC(=O)CNC(=O)CCCCCCCCCCC | 1.11 | 12.5 |
| CCCCCCCCCCCCN1CCCCCC1=O [LAUROCAPRAM] | 0.6 | 2.5 |
| CCCCCCCC/C=C/CCCCCCCC(=O)NC(CO)C(=O)OCCCCCCCCCCCC (centres undefined) | 1.49 | 1.26 |
| CCCCCCCCCCCCOC(=O)C(CO)NC(=O)CCCCCCCCCCC (centres undefined) | 1.21 | 2.74 |
